Laboratory results published in article PMC11329504, “Identification of novel small molecule-based strategies of COL7A1 upregulation and readthrough activity for the treatment of recessive dystrophic epidermolysis bullosa” (Scientific Reports, 2024).
Read-outs that look alike come from different tables or passages of the source.

Experiments:
JAK3 = target: T1, JAK3 (Homo sapiens, UniProt P52333); assay: Enzymatic JAK3 kinase activity; assay type: biochemical; conditions: dose-response curves; read-out: IC50 ± SD, JAK3
T1 sequence (P52333 1-1124): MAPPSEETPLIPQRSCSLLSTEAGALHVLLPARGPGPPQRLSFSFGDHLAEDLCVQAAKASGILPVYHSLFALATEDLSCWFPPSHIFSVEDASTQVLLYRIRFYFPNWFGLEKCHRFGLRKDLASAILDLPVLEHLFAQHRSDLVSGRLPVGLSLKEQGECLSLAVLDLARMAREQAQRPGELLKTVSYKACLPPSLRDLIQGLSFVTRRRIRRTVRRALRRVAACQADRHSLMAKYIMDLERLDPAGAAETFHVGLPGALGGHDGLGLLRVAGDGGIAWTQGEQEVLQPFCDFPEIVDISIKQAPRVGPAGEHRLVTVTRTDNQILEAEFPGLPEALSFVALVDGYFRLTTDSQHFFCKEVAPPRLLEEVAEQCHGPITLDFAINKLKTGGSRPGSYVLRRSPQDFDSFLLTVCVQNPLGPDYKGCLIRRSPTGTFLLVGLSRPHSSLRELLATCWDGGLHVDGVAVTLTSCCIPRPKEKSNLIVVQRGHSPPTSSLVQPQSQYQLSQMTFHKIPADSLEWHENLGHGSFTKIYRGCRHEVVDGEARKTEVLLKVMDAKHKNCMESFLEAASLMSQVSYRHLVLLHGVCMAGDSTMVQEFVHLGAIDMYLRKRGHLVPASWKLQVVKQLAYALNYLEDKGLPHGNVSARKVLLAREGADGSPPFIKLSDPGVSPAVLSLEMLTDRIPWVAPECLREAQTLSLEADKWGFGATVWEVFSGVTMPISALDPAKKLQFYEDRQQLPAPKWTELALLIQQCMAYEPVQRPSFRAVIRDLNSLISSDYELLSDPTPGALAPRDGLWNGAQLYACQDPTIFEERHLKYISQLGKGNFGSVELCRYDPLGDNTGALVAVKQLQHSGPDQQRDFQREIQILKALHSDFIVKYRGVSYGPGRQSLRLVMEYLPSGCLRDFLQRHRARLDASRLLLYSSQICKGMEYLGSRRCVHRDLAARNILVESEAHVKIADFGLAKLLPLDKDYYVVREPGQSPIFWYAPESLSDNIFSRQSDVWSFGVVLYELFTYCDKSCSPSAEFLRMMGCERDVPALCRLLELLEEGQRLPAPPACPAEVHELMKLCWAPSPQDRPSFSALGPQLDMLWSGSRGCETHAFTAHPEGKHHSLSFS
Protocol: (§1) Enzymatic Syk kinase activity assays were performed as previously described. Enzymatic activity of JAK1, JAK2, JAK3, and Tyk kinases was evaluated as previously described.

JAK1 = JAK1 (Homo sapiens, UniProt P23458); assay: Enzymatic JAK1 kinase activity; assay type: biochemical; conditions: dose-response curves; read-out: IC50 ± SD, JAK1
Protocol: as §1

[1] = test system: total C7 in HEK293^R578X cells; assay: AlphaLISA quantification of total C7 in recombinant HEK293^R578X cells; assay type: cell-based, human; conditions: for EC50: Homo sapiens, total C7 AlphaLISA, 48 h, relative EC50, mean ± SD, read-out: Increase in C7 levels EC50
Protocol: The AlphaLISA assay was developed in-house by using the biotin-conjugated rabbit polyclonal antibody anti-C7 (LSBio LS-298147) and conjugating the acceptor beads (PerkinElmer 6772001) to a monoclonal anti-Collagen type VII antibody produced in mouse, clone LH7.2 (Thermo MA5-13,432). Formulation of the mAb clone LH7.2 was exchanged to PBS and concentrated 5 × by using Amicon® Ultra-0.5 centrifugal filters up to 1 mg/ml. The conjugation procedure was carried out according to the protocol provided by PerkinElmer.
For compound treatment in RDEB patient-derived transformed keratinocytes, 5,000 cells were plated in 20 µL of supplemented KGM media containing 20 ng/mL TGFβ2 (SIGMA GF113) without GA-1000 in 384-well cell culture plates (Greiner 781098). The day after, 5 µL of test compounds prepared 5 × in supplemented KGM without GA-1000 were added over cells and incubated for 48 h at 37 °C and 5% CO2. For compound treatment in HEK293^R578X, 10,000 cells were plated in 20 μL of DMEM (High Glucose, 2 mM L-Glutamine, sodium pyruvate, and FBS 10%) in 384-well cell culture plates (Greiner 781,098,). The day after, 5 μL of test compounds prepared 5 × in DMEM complete medium were added over cells and incubated for 48 h at 37 °C and 5% CO2.
After the treatment process, 2.5 µL of RIPA buffer 10 x (Abcam ab156034) were added over the […] of cells for 20 min at room temperature to obtain a complete cell lysis. Then, 2 μL of sample (i.e., cell lysate with supernatant) were transferred to the AlphaLISA plate (PerkinElmer 6,059,340) containing […] of antibodies mixture ([…] of acceptor Beads-Ab and […] of biotin-rAb) prepared in AlphaLISA buffer 1 x (PerkinElmer AL00F). The reaction was incubated for 90 min at room temperature. Finally, 10 μL of […] of donor beads (PerkinElmer 6760002,) were added to the reaction under subdued light, mixed gently, and incubated for 3 h at room temperature. AlphaLISA signal was detected with an Envision microplate reader (Perkin Elmer) using the following setting: Filter: AlphaScreen, Excitation time: 180 ms, Integration time: 300 ms.
Statistical analyses were performed using GraphPad Prism v. 7.04 (La Jolla, California). Results are shown as mean ± SD of experimental replicates. Dose–response curves to assess compound treatment effect were plotted in a four-parameter logistic model. Relative EC50, representing the total drug concentration producing a 50% effect, was calculated in the four-parameter logistic equation. Comparisons of collagen protein and mRNA expression in different experimental conditions were made using ANOVA, followed by a post hoc test. statistical significance was considered with p values < 0.05.

A2A = target: T2, A2A (Homo sapiens, UniProt P29274); assay: Selectivity panel (Eurofins): A2A adenosine receptor; assay type: binding
T2 construct: Eurofins Pharma Discovery Services

BZD = assay: Selectivity panel (Eurofins): benzodiazepine receptor BZD; assay type: binding; conditions: for % inhibition, BZD: n = 1, duplicate
Kappa (KOP) = assay: Selectivity panel (Eurofins): Kappa (KOP); assay type: binding; conditions: n = 1, duplicate
Protocol: Selectivity was evaluated at Eurofins Pharma Discovery Services at 3 µM, 10 µM, and 30 µM in duplicate using a selection of 84 representative kinases and 44 GPCRs, transporters, nuclear receptors (NR), enzymes, and ion channels.

[2] = at concentrations of 3 and 10 µM

T2 sequence (P29274 whole entry): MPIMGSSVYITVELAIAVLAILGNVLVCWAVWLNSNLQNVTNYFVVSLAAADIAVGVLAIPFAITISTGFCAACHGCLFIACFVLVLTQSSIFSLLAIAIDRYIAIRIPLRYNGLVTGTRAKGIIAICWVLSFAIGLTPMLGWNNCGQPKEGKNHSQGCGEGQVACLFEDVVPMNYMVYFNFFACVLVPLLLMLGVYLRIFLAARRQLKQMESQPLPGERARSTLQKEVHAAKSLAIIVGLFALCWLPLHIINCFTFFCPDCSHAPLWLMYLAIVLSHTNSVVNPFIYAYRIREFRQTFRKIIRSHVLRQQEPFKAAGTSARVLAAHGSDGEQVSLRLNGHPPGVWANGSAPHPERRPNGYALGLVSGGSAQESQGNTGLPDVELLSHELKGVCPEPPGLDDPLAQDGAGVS
Chain of JAK1 (P23458 whole entry, species assumed): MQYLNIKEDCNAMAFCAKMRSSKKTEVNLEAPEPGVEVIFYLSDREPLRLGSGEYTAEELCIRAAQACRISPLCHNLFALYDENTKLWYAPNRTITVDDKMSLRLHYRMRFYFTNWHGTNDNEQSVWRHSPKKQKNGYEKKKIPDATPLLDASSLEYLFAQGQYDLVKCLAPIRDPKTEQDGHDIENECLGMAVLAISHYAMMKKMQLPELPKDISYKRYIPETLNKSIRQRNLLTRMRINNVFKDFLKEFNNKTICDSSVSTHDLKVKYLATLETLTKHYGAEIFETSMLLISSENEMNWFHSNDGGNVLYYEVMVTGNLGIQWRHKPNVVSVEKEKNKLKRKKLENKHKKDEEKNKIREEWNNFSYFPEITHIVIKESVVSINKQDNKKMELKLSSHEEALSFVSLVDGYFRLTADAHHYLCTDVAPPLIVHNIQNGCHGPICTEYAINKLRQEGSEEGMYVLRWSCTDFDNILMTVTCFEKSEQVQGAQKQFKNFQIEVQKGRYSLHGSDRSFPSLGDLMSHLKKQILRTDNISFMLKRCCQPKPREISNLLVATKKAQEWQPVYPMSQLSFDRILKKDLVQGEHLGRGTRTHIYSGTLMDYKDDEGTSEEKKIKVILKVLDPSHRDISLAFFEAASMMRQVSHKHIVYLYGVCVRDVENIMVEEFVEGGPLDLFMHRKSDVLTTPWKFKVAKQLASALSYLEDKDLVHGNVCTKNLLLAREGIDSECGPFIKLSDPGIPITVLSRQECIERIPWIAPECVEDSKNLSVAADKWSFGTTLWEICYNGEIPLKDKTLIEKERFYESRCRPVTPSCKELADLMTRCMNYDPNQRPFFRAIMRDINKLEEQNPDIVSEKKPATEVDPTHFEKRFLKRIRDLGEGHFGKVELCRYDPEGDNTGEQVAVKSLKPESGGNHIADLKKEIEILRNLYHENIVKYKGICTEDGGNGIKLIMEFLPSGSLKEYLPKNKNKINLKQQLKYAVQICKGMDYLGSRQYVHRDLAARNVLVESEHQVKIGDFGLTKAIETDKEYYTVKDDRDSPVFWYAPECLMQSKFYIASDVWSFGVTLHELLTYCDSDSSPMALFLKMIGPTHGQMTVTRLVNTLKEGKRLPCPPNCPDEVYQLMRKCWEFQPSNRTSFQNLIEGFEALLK

SMILES	IC50 (JAK3) [µM]	IC50 (JAK1) [µM]	EC50 [1] [µM]	Increase in C7 levels Emax, % vs baseline ([1]; at 100 µM) [at 100 % vs baseline]	inhibition at 10 µM (A2A; Table 5, read-out: Selectivity % inhibition, A2A) [%]	inhibition at 3 µM (A2A; at 3 μM, n = 1, duplicate, read-out: % inhibition, A2A) [%]	inhibition at 10 µM (A2A; n = 1, duplicate, read-out: % inhibition, A2A) [%]	inhibition at 30 µM (A2A; at 30 μM, n = 1, duplicate, read-out: % inhibition, A2A) [%]	antagonism/inhibition of A2A adenosine receptor (A2A; [2]) [%]	% inhibition, BZD (BZD; at 3 μM) [%]	% inhibition, BZD (BZD; at 10 μM) [%]	% inhibition, BZD (BZD; at 30 μM) [%]	antagonism/inhibition of benzodiazepine receptor BZD (BZD; [2]) [%]	% inhibition, Kappa (KOP) (Kappa (KOP); at 3 μM) [%]	% inhibition, Kappa (KOP) (Kappa (KOP); at 10 μM) [%]	% inhibition, Kappa (KOP) (Kappa (KOP); at 30 μM) [%]	Increase in C7 levels Emax, % vs baseline ([1]; at 4100 µM) [at 4100 % vs baseline]
NC(=O)Cn1ccc2ccc(-c3cnc(N)c(C(=O)NC4C5CC6CC4CC(O)(C6)C5)n3)cc21 (stereo not drawn) [Compound 1]	0.06 ± 0.006	0.44 ± 0.16	–	–	–	–	–	–	–	–	–	–	–	–	–	–	–
C#Cc1cc(-c2ccncc2)c(-c2cccc(F)c2)nc1N [Compound 7]	–	–	60 ± 4.6	96 ± 35	96	101	100	101	≥ 50	48	73	88	≥ 50	12	32	54	–
CNC(C)C1CCC(N)C(OC2C(N)CC(N)C(OC3OCC(C)(O)C(NC)C3O)C2O)O1 (stereo not drawn) [Gentamicin, reference compound]	–	–	4500 ± 2900	–	–	–	–	–	–	–	–	–	–	–	–	–	89 ± 17
